The record followed here is patent US12030884B2, “Pyrazoloquinoline KRAS inhibitors” (INCYTE CORPORATION, priority 2021, dated 2024).

The target in one data set is KRAS G12C (Homo sapiens, UniProt P01116, G12C). In words: GDP-GTP exchange assay (KRAS_G12C exchange assay). Type of data set: biochemical. As to conditions: bodipy-loaded KRAS G12C, SOS1, GppNHp; 2 hours pre-incubation with inhibitor; read-out: G12C_exchange. On the procedure:
The inhibitor potency of the exemplified compounds was determined in a fluorescence based guanine nucleotide exchange assay, which measures the exchange of bodipy-GDP (fluorescently labeled GDP) for GppNHp (Non-hydrolyzable GTP analog) to generate the active state of KRAS in the presence of SOS1 (guanine nucleotide exchange factor). Inhibitors were serially diluted in DMSO and a volume of 0.1 μL was transferred to the wells of a black low volume 384-well plate. 5 μL/well volume of bodipy-loaded KRAS G12C diluted to 5 nM in assay buffer (25 mM Hepes pH 7.5, 50 mM NaCl, 10 mM MgCl2 and 0.01% Brij-35) was added to the plate and pre-incubated with inhibitor for 2 hours at ambient temperature. Appropriate controls (enzyme with no inhibitor or with a G12C inhibitor (AMG-510)) were included on the plate. The exchange was initiated by the addition of a 5 μL/well volume containing 1 mM GppNHp and 300 nM SOS1 in assay buffer. The 10 μL/well reaction concentration of the bodipy-loaded KRAS G12C, GppNHp, and SOS1 were 2.5 nM, 500 uM, and 150 nM, respectively. The reaction plates were incubated at ambient temperature for 2 hours, a time estimated for complete GDP-GTP exchange in the absence of inhibitor. For the KRAS G12D and G12V mutants, similar guanine nucleotide exchange assays were used with 2.5 nM as final concentration for the bodipy loaded KRAS proteins and with 4 hours and 3 hours incubation after adding GppNHp-SOS1 mixture for G12D and G12V respectively. A cyclic peptide described to selectively bind G12D mutant (Sakamoto et al., BBRC 484.3 (2017), 605-611) or internal compounds with confirmed binding were used as positive controls in the assay plates. Fluorescence intensities were measured on a PheraStar plate reader instrument (BMG Labtech) with excitation at 485 nm and emission at 520 nm.
Either GraphPad prism or Genedata Screener SmartFit was used to analyze the data. The IC50 values were derived by fitting the data to a four parameter logistic equation producing a sigmoidal dose-response curve with a variable Hill coefficient.

In data set [1] the test system is pERK1/2 in MIA PaCa-2 cells (KRAS G12C). In words: Whole blood pERK1/2 HTRF assay (KRAS_G12C WB pERK assay). The data set is classed as cell-based. As to conditions: Homo sapiens, compound in whole blood, 4 hours, read-out: G12C_WB_pERK. Here is the method:
MIA PaCa-2 cells (KRAS G12C; ATCC® CRL-1420), HPAF-II (KRAS G12D; ATCC® CRL-1997) and YAPC (KRAS G12V; DSMZ ACC382) are maintained in RPMI 1640 with 10% FBS (Gibco/Life Technologies). For MIA PaCa-2 assay, cells are seeded into 96 well tissue culture plates (Corning #3596) at 25000 cells per well in 100 uL media and cultured for 2 days at 37° C., 5% CO2 before the assay. For HPAF-II and YAPC assay, cells are seeded in 96 well tissue culture plates at 50000 cells per well in 100 uL media and cultured for 1 day before the assay. Whole Blood are added to the 1 uL dots of compounds (prepared in DMSO) in 96 well plates and mixed gently by pipetting up and down so that the concentration of the compound in blood is 1× of desired concentration, in 0.5% DMSO. The media is aspirated from the cells and 50 uL per well of whole blood with test compound is added and incubated for 4 hours for MIA PaCa and YAPC assay; or 2 hours for HPAF-II assay, respectively at 37° C., 5% CO2. After dumping the blood, the plates are gently washed twice by adding PBS to the side of the wells and dumping the PBS from the plate onto a paper towel, tapping the plate to drain well. Fifty ul/well of 1×lysis buffer #1 (Cisbio) with blocking reagent (Cisbio) and Benzonase nuclease (Sigma Cat #E1014-5KU, 1: 10000 final concentration) is then added and incubated at room temperature for 30 minutes with shaking (250 rpm). Following lysis, 16 uL of lysate is transferred into 384-well Greiner small volume white plate using an Assist Plus (Integra Biosciences, NH). Four uL of 1:1 mixture of anti Phospho-ERK 1/2 d2 and anti Phospho-ERK 1/2 Cryptate (Cisbio) is added to the wells using the Assist Plus and incubated at room temperature overnight in the dark. Plates are read on the Pherastar plate reader at 665 nm and 620 nm wavelengths. Data are analyzed in Genedata Screener using SmartFit for IC50 values.

The nature of data set [2]: Human whole blood stability. Type of data set: in vitro ADME. As to conditions: percent remaining, 1 μM, 37° C. On the procedure: The whole blood stability of the exemplified compounds was determined by LC-MS/MS. The 96-Well Flexi-Tier™ Block (Analytical Sales & Services, Inc, Flanders, NJ) was used for the incubation plate containing 1.0 mL glass vials with 0.5 mL of blood per vial (pooled gender, human whole blood sourced from BIOIVT, Hicksville, NY or similar). Blood was pre-warmed in water bath to 37° C. for 30 minutes. 96-deep well analysis plate was prepared with the addition of 100 μL ultrapure water/well. 50 μL chilled ultrapure water/well was added to 96-deep well sample collection plate and covered with a sealing mat. 1 μL of 0.5 mM compound working solution (DMSO:water) was added to the blood in incubation plate to reach final concentrations of 1 μM, mixed by pipetting thoroughly and 50 μL was transferred 50 into the T=0 wells of the sample collection plate. Blood was allowed to sit in the water for 2 minutes and then 400 μL stop solution/well was added (acetonitrile containing an internal standard). The incubation plate was placed in the Incu-Shaker CO2 Mini incubator (Benchmark Scientific, Sayreville, NJ) at 37° C. with shaking at 150 rpm. At 1, 2 and 4-hr, the blood samples were mixed thoroughly by pipetting and 50 μL is transferred into the corresponding wells of the sample collection plate. Blood was allowed to sit in the water for 2 minutes and then 400 μL of stop solution/well was added. The collection plate was sealed and vortexed at 1700 rpm for 3 minutes (VX-2500 Multi-Tube Vortexer, VWR International, Radnor, PA), and samples were then centrifuged in the collection plate at 3500 rpm for 10 minutes (Allegra X-14R Centrifuge Beckman Coulter, Indianapolis, IN). 100 μL of supernatant/well was transferred from the sample collection plate into the corresponding wells of the analysis plate. The final plate was vortexed at 1700 rpm for 1 minute and analyze samples by LC-MS/MS. The peak area ratio of the 1, 2, and 4 hr samples relative to T=0 was used to determine the percent remaining. The natural log of the percent remaining versus time was used determine a slope to calculate the compounds half-life in blood (t1/2=0.693/slope).

In data set [3] the test system is pERK in KRAS G12C cells (MIA PaCa-2, NCI-H358). The data set can be described thus: Cellular pERK HTRF assay (KRAS_G12C pERK assay). Type of data set: cell-based. As to conditions: 4 hours incubation, read-out: G12C_pERK. Here is the method: MIA PaCa-2 (KRAS G12C; ATCC® CRL-1420), NCI-H358 (KRAS G12C; ATCC® CRL-5807), A427 (KRAS G12D; ATCC® HTB53), HPAFII (KRAS G12D; ATCC® CRL-1997), YAPC (KRAS G12V; DSMZ ACC382), SW480 (KRAS G12V; ATCC® CRL-228) and NCI-H838 (KRAS WT; ATCC® CRL-5844) cells are purchased from ATCC and maintained in RPMI 1640 media supplemented with 10% FBS (Gibco/Life Technologies). The cells are plated at 5000 cells per well (8 uL) into Greiner 384-well low volume, flat-bottom, and tissue culture treated white plates and incubated overnight at […], 5% CO2. The next morning, test compound stock solutions are diluted in media at 3× the final concentration and 4 uL are added to the cells, with a final concentration of 0.1% of DMSO. The cells are incubated with the test compounds for 4 hours (G12C and G12V) or 2 hrs (G12D) at 37° C., 5% CO2. Four uL of 4×lysis buffer with blocking reagent (Cisbio) are added to each well and plates are rotated gently (300 rpm) for 30 minutes at room temperature. Four uL per well of Cisbio anti Phospho-ERK 1/2 d2 is mixed with anti Phospho-ERK 1/2 Cryptate (1:1), and added to each well, incubated overnight in the dark at room temperature. Plates are read on the Pherastar plate reader at 665 nm and 620 nm wavelengths. Data are analyzed in Genedata Screener using SmartFit for IC50 values.

SMILES strings stand for the structures.

Sequence of KRAS G12C (P01116 1-188 isoform P01116-2 G12C): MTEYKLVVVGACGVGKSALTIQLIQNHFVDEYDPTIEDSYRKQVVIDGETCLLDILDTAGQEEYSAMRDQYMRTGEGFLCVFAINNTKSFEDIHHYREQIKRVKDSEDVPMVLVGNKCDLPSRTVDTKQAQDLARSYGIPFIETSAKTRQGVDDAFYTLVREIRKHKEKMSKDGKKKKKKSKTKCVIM

`COC/C=C/C(=O)N1CC[C@H](n2ncc3c(O[C@@H](C)[C@@H]4CCCN4C)nc4c(F)c(-c5nccc6cccc(C#N)c56)c(Cl)cc4c32)C[C@H]1CC#N` [Example 2a, 1-(8-chloro-1-((2S,4S)-2-(cyanomethyl)-1-((E)-4-methoxybut-2-enoyl)piperidin-4-yl)-6-fluoro-4-((S)-1-((S)-1-methylpyrrolidin-2-yl)ethoxy)-1H-pyrazolo[4,3-c]quinolin-7-yl)isoquinoline-8-carbonitrile]: the IC50 (at KRAS G12C; in data set [1]; in data set [3]) was at most 100 nM each time. Further, the “Human whole blood stability at 4 hr” value in data set [2] is given as “††† (WBS >90%)”.
